System: TEAD-dependent transcription
Assay: TEAD-dependent transcription cell-based reporter assay (MSTO-211H+12XGTIIC luciferase)
Design: species or system human
Conditions: Homo sapiens; MSTO-211H+12XGTIIC reporter cells, 24 hours compound incubation, luminescence normalized to viability; read-out: MSTO-211H GMean IC50 (uM) Cell Assay Reporter Cell Variant: TEAD
From the text: The human mesothelioma cell line MSTO-211H was stably transfected with a pGL4.21 plasmid containing a synthetic promoter with 12 copies of the GTIIC TEAD response element that drives the expression of a luciferase reporter gene^1 using Lipofectamine transfection reagent (Thermo Fisher). Transfected cells were selected using puromycin and single cell clones expressing this construct (referred to as MSTO-211H+12XGTIIC) were generated by limiting dilution. MSTO-211H cells was characterized by genetic alterations in key components of the Hippo pathway^2, resulting in up-regulation of YAP/TEAD-mediated transcription. […] To evaluate TEAD inhibitors, the MSTO-211H+12XGTIIC cell line was seeded in a 96-well plate in 50 μL of culture media at 1×10^4 cells per well and incubated at 37° C. overnight. Serial dilutions of compounds (in total volume of 50 μL of culture media) were added to the cells and incubated at 37° C. for 24 hours. Each plate included cells treated with DMSO as high controls and cells treated with 20 μM of the reference compound K-975 (a known TEAD inhibitor)^3 as low controls. Cell viability was assayed by the addition of 25 μL of CellTiter-Fluor reagent (Promega) followed by a 30-minute incubation at 37° C. and quantification of the fluorescence signal (Ex400/Em505). Subsequently, luciferase expression was assayed by the addition of 25 μL of ONE-Glo reagent (Promega) followed by a 10-minute incubation at room temperature and quantification of the luminescence signal. The luminescence signal was normalized to the fluorescence signal to correct for any loss in cell viability over the 24-hour compound incubation period. The percentage of inhibition of normalized luminescence signal, indicative of compound-mediated inhibition of TEAD-dependent transcription, at individual compound concentrations relative to high and low controls was calculated. The data were analyzed by using nonlinear regression to generate IC50 values for individual compounds.

O=C(c1ccc(C(F)(F)F)cc1)c1cccc2c1CCN(C(=O)Cc1c[nH]cn1)C2 [O-0047, 2-(1H-imidazol-4-yl)-1-(5-(4-(trifluoromethyl)benzoyl)-3,4-dihydroisoquinolin-2(1H)-yl)ethan-1-one] and O=C(Cc1c[nH]cn1)N1CCc2c(Cc3ccc(C(F)(F)F)cc3)cccc2C1 [O-0080, 2-(1H-imidazol-4-yl)-1-(5-(4-(trifluoromethyl)benzyl)-3,4-dihydroisoquinolin-2(1H)-yl)ethan-1-one] fall in the same range of IC50: 0.001 to 10 µM for the first, 0.001 to 10 µM for the second.

O=C(CCS(=O)(=O)C(F)(F)F)N1CCc2cc(-c3ccc(C(F)(F)F)cc3)ccc2C1 [O-0128, 1-(6-(4-(trifluoromethyl)phenyl)-3,4-dihydroisoquinolin-2(1H)-yl)-3-((trifluoromethyl)sulfonyl)propan-1-one] and O=C(CCS(=O)(=O)C(F)(F)F)N1CCc2cc(-c3ccc(C(F)(F)F)c(F)c3)ccc2C1 [O-0130, 1-(6-(3-fluoro-4-(trifluoromethyl)phenyl)-3,4-dihydroisoquinolin-2(1H)-yl)-3-((trifluoromethyl)sulfonyl)propan-1-one] fall in the same range of IC50: 0.001 to 10 µM for the first, 0.001 to 10 µM for the second.

O=C(Cc1cnc[nH]1)N1CCc2ccc(C(F)(F)c3ccc(C(F)(F)F)nc3)cc2C1 [O-0060, 1-(7-(difluoro(6-(trifluoromethyl)pyridin-3-yl)methyl)-3,4-dihydroisoquinolin-2(1H)-yl)-2-(1H-imidazol-5-yl)ethan-1-one] and O=C(CCc1cnc[nH]1)N1CCc2ccc(C(F)(F)c3ccc(C(F)(F)F)nc3)cc2C1 [O-0059, 1-(7-(difluoro(6-(trifluoromethyl)pyridin-3-yl)methyl)-3,4-dihydroisoquinolin-2(1H)-yl)-3-(1H-imidazol-5-yl)propan-1-one] fall in the same range of IC50: 0.001 to 10 µM for the first, 0.001 to 10 µM for the second.

O=C(Cc1cscn1)N1CCc2c(cccc2C(F)c2ccc(C(F)(F)F)cc2)C1 (stereo not drawn) [O-0056, 1-(5-(fluoro(4-(trifluoromethyl)phenyl)methyl)-3,4-dihydroisoquinolin-2(1H)-yl)-2-(thiazol-4-yl)ethan-1-one] and O=C(Cc1c[nH]cn1)N1CCc2c(cccc2C(F)c2ccc(C(F)(F)F)cc2)C1 (stereo not drawn) [O-0068, 1-(5-(fluoro(4-(trifluoromethyl)phenyl)methyl)-3,4-dihydroisoquinolin-2(1H)-yl)-2-(1H-imidazol-4-yl)ethan-1-one] fall in the same range of IC50: 0.001 to 10 µM for the first, 0.001 to 10 µM for the second.

COC(c1ccc(C(F)(F)F)cc1)c1cccc2c1CCN(C(=O)CCS(C)(=O)=O)C2 (stereo not drawn) [O-0078, 1-(5-(methoxy(4-(trifluoromethyl)phenyl)methyl)-3,4-dihydroisoquinolin-2(1H)-yl)-3-(methylsulfonyl)propan-1-one] and CS(=O)(=O)CCC(=O)N1CCc2c(cccc2C(=O)c2ccc(C(F)(F)F)cc2)C1 [O-0081, 3-(methylsulfonyl)-1-(5-(4-(trifluoromethyl)benzoyl)-3,4-dihydroisoquinolin-2(1H)-yl)propan-1-one] fall in the same range of IC50: 0.001 to 10 µM for the first, 0.001 to 10 µM for the second.

C[C@@H](NS(C)(=O)=O)C(=O)N1CCc2c(cccc2-c2ccc(C(F)(F)F)cc2)C1 [O-0185, (R)-N-(1-oxo-1-(5-(4-(trifluoromethyl)phenyl)-3,4-dihydroisoquinolin-2(1H)-yl)propan-2-yl)methanesulfonamide] and CC(C)C[C@@H](NS(C)(=O)=O)C(=O)N1CCc2c(cccc2-c2ccc(C(F)(F)F)cc2)C1 [O-0139, (R)-N-(4-methyl-1-oxo-1-(5-(4-(trifluoromethyl)phenyl)-3,4-dihydroisoquinolin-2(1H)-yl)pentan-2-yl)methanesulfonamide] fall in the same range of IC50: 0.001 to 10 µM for the first, 0.001 to 10 µM for the second.

O=C(c1c[nH]c(C(F)(F)F)n1)N1CCc2c(cccc2C(F)c2ccc(C(F)(F)F)cc2)C1 (stereo not drawn) [O-0055, (5-(fluoro(4-(trifluoromethyl)phenyl)methyl)-3,4-dihydroisoquinolin-2(1H)-yl)(2-(trifluoromethyl)-1H-imidazol-4-yl)methanone] and CS(=O)(=O)c1nc(C(=O)N2CCc3c(cccc3C(F)c3ccc(C(F)(F)F)cc3)C2)c[nH]1 (stereo not drawn) [O-0054, (5-(fluoro(4-(trifluoromethyl)phenyl)methyl)-3,4-dihydroisoquinolin-2(1H)-yl)(2-(methylsulfonyl)-1H-imidazol-4-yl)methanone] fall in the same range of IC50: 0.001 to 10 µM for the first, 0.001 to 10 µM for the second.

C=CS(=O)(=O)N1CCc2cc(-c3ccc(C(F)(F)F)cc3)ccc2C1 [O-0111, 6-(4-(trifluoromethyl)phenyl)-2-(vinylsulfonyl)-1,2,3,4-tetrahydroisoquinoline] and C=CS(=O)(=O)N1CCc2ccc(-c3ccc(C(F)(F)F)cc3)cc2C1 [O-0114, 7-(4-(trifluoromethyl)phenyl)-2-(vinylsulfonyl)-1,2,3,4-tetrahydroisoquinoline] fall in the same range of IC50: 0.001 to 10 µM for the first, 0.001 to 10 µM for the second.

CS(=O)(=O)c1nc(C(=O)N2CCc3cc(-c4ccc(C(F)(F)F)cc4)ccc3C2)c[nH]1 [O-0190, (2-(methylsulfonyl)-1H-imidazol-4-yl)(6-(4-(trifluoromethyl)phenyl)-3,4-dihydroisoquinolin-2(1H)-yl)methanone] and O=C(c1c[nH]c(C(F)(F)F)n1)N1CCc2cc(-c3ccc(C(F)(F)F)cc3)ccc2C1 [O-0191, (2-(trifluoromethyl)-1H-imidazol-4-yl)(6-(4-(trifluoromethyl)phenyl)-3,4-dihydroisoquinolin-2(1H)-yl)methanone] fall in the same range of IC50: 0.001 to 10 µM for the first, 0.001 to 10 µM for the second.

CS(=O)(=O)c1nc(C(=O)N2CCc3c(cccc3C(=O)c3ccc(C(F)(F)F)cc3)C2)c[nH]1 [O-0038, (2-(methylsulfonyl)-1H-imidazol-4-yl)(5-(4-(trifluoromethyl)benzoyl)-3,4-dihydroisoquinolin-2(1H)-yl)methanone] and O=C(c1ccc(C(F)(F)F)cc1)c1cccc2c1CCN(C(=O)c1ncc(C(F)(F)F)[nH]1)C2 [O-0072, (5-(trifluoromethyl)-1H-imidazol-2-yl)(5-(4-(trifluoromethyl)benzoyl)-3,4-dihydroisoquinolin-2(1H)-yl)methanone] fall in the same range of IC50: 0.001 to 10 µM for the first, 0.001 to 10 µM for the second.

C[C@@H](Nc1ccccn1)C(=O)N1CCc2cc(-c3ccc(C(F)(F)F)cc3)ccc2C1 [O-0145, (R)-2-(pyridin-2-ylamino)-1-(6-(4-(trifluoromethyl)phenyl)-3,4-dihydroisoquinolin-2(1H)-yl)propan-1-one] and C[C@@H](N)C(=O)N1CCc2cc(-c3ccc(C(F)(F)F)cc3)ccc2C1 [O-0186, (R)-2-amino-1-(6-(4-(trifluoromethyl)phenyl)-3,4-dihydroisoquinolin-2(1H)-yl)propan-1-one] fall in the same range of IC50: 0.001 to 10 µM for the first, 0.001 to 10 µM for the second.

Compared with C[C@@H](NC(=O)OC(C)(C)C)C(=O)N1CCc2c(cccc2-c2ccc(C(F)(F)F)cc2)C1 [O-0196, tert-butyl (R)-(1-oxo-1-(5-(4-(trifluoromethyl)phenyl)-3,4-dihydroisoquinolin-2(1H)-yl)propan-2-yl)carbamate], O=C(CCS(=O)(=O)C(F)(F)F)N1CCc2c(Cc3ccc(C(F)(F)F)cc3)cccc2C1 [O-0001, 1-(5-(4-(trifluoromethyl)benzyl)-3,4-dihydroisoquinolin-2(1H)-yl)-3-((trifluoromethyl)sulfonyl)propan-1-one] is lower in IC50: over 100 µM for the first, 0.001 to 10 µM for the second.

O=C(CCS(=O)(=O)C(F)(F)F)N1CCc2c(cccc2C(F)c2ccc(C(F)(F)F)nc2)C1 (stereo not drawn) [O-0008, 1-(5-(fluoro(6-(trifluoromethyl)pyridin-3-yl)methyl)-3,4-dihydroisoquinolin-2(1H)-yl)-3-((trifluoromethyl)sulfonyl)propan-1-one] and O=C(c1ccc(C(F)(F)F)cc1)c1ccc2c(c1)CN(C(=O)CCS(=O)(=O)C(F)(F)F)CC2 [O-0065, 1-(7-(4-(trifluoromethyl)benzoyl)-3,4-dihydroisoquinolin-2(1H)-yl)-3-((trifluoromethyl)sulfonyl)propan-1-one] fall in the same range of IC50: 0.001 to 10 µM for the first, 0.001 to 10 µM for the second.

O=C(Cc1cscn1)N1CCc2c(Cc3ccc(C(F)(F)F)cc3)cccc2C1 [O-0079, 2-(thiazol-4-yl)-1-(5-(4-(trifluoromethyl)benzyl)-3,4-dihydroisoquinolin-2(1H)-yl)ethan-1-one] and Nc1nc2ccc(C(=O)N3CCc4c(cccc4C(=O)c4ccc(C(F)(F)F)cc4)C3)cc2[nH]1 [O-0069, (2-amino-1H-benzo[d]imidazol-6-yl)(5-(4-(trifluoromethyl)benzoyl)-3,4-dihydroisoquinolin-2(1H)-yl)methanone] fall in the same range of IC50: 0.001 to 10 µM for the first, 0.001 to 10 µM for the second.

O=C(c1cccc2sc(C(F)(F)F)nc12)N1CCc2c(cccc2C(F)c2ccc(C(F)(F)F)cc2)C1 (stereo not drawn) [O-0070, (5-(fluoro(4-(trifluoromethyl)phenyl)methyl)-3,4-dihydroisoquinolin-2(1H)-yl)(2-(trifluoromethyl)benzo[d]thiazol-4-yl)methanone] and O=C(c1ccc(C(F)(F)F)cc1)c1cccc2c1CCN(C(=O)c1cccc3[nH]c(C(F)(F)F)nc13)C2 [O-0046, (2-(trifluoromethyl)-1H-benzo[d]imidazol-4-yl)(5-(4-(trifluoromethyl)benzoyl)-3,4-dihydroisoquinolin-2(1H)-yl)methanone] fall in the same range of IC50: 0.001 to 10 µM for the first, 0.001 to 10 µM for the second.

Reference: patent US20250376445A1, “COMPOUNDS AND METHODS FOR YAP/TEAD MODULATION AND INDICATIONS THEREFOR” (OPNA BIO SA, priority 2023, published 2025)
